14 compounds from ChEMBL document CHEMBL1127355, “(E)-3-[[[[6-(2-carboxyethenyl)-5-[[8-(4- methoxyphenyl)octyl]oxy]-2-pyridinyl]-methyl]thio]methyl]benzoic acid and related compounds: high affinity leukotriene B4 receptor antagonists” (J Med Chem, 1994) can be followed below.

The structures appear in SMILES notation.

The species entered for assay [1] is Homo sapiens. Kind of assay: Concentration of test compound required to inhibit 50% LTB4-induced calcium mobilization in intact human PMNs. Type of assay: functional. (A change in cytosolic calcium serves as a functional read-out for many receptors and channels.)
The species entered for assay [2] is Homo sapiens. The assay can be described thus: Concentration of test compound required to inhibit 50% LTB4-induced degranulation of human PMNs. Type of assay: functional.
Assay [3] addresses Leukotriene B4 receptor 1 (Homo sapiens, UniProt Q15722). Kind of assay: Binding affinity at leukotriene B4 receptor on intact human PMNs by displacement of [3H]LTB4. (Loss of bound radioactivity is the signal in a displacement assay; it reports binding, not function.)
Assay [4] is filed under the species Mus musculus. Kind of assay: Effective concentration required for inhibition of LTB4-induced (250 ng/mL) PMN infiltration. It is filed as functional.
For assay [5], the species on record is Mus musculus. The assay can be described thus: Effective concentration required per ear of mouse for inhibition of neutrophil infiltration. It is filed as functional.
The species named for assay [6] is Mus musculus. The assay can be described thus: Compound was tested for its effect on mouse ear for reduction of PMN infiltration. Type of assay: functional.
Assay [7] relates to Mus musculus. The assay can be described thus: Effective concentration required per ear of mouse for inhibition of edematous response. It is filed as functional.

Leukotriene B4 receptor 1, sequence (Q15722 whole entry): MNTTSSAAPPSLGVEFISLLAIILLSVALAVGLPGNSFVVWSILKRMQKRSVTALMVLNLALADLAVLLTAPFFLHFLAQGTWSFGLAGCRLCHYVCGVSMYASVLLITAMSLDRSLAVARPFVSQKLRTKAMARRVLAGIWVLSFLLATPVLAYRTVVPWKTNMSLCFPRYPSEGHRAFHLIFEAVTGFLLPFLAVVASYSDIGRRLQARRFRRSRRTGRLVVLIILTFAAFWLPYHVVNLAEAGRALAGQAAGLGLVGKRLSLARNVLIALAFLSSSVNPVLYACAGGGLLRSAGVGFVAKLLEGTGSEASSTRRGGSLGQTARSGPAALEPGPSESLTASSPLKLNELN

As for `O=C(O)/C=C/c1nc(CSCc2cccc(C(=O)O)c2)ccc1OCCCCCCCCc1ccccc1`, the IC50 in the assay listed under Homo sapiens [1] was 0.32 µM; in the assay listed under Homo sapiens [2], 0.5 µM. The same compound displayed a Ki in assay [3] of 0.0154 µM.
Regarding `COc1ccc(CCCCCCCCOc2ccc(C[S+]([O-])Cc3cccc(C(=O)O)c3)nc2/C=C/C(=O)O)cc1` (centres undefined), the IC50 in the assay listed under Homo sapiens [1] was found to be 3.3 µM; in the assay listed under Homo sapiens [2] it was 2.6 µM. For the same compound, affinity in assay [3] was put at a Ki of 0.24 µM.
In the same order, the values of `COc1ccc(CCCCOc2ccc(CSCc3cccc(C(=O)O)c3)nc2CCC(=O)O)cc1` are 1.9 µM, 3.8 µM and 0.028 µM.
Consider `COc1ccc(CCCCCCCCOc2ccc(CSc3cccc(C(=O)O)c3)nc2/C=C/C(=O)O)cc1`, for which the IC50 worked out at 0.55 µM in the assay filed under Homo sapiens [1] and 1 µM in the assay filed under Homo sapiens [2].
`COc1ccc(CCCCCCCCOc2ccc(CSCc3cccc(C(=O)O)c3)nc2/C=C/C(=O)O)cc1`: the ED50 is 7.1 mg/kg in the assay listed under Mus musculus [4], 0.39 mg in the assay listed under Mus musculus [5] and 0.58 mg in the assay on Mus musculus [7]. Moreover, in the assay filed under Homo sapiens [1], the IC50 was determined as 0.131 µM. In addition, in the assay filed under Mus musculus [6], the Reduction is listed as 92%.
As to `COc1ccc(CCCCCCCCOc2ccc(CS(=O)(=O)Cc3cccc(C(=O)O)c3)nc2/C=C/C(=O)O)cc1`, the figures for the IC50 in the assay listed under Homo sapiens [1] and in the assay filed under Homo sapiens [2] were 0.92 µM and 1 µM, respectively. This compound displayed an inhibitory constant (Ki) in assay [3] of 0.053 µM.
In the same order, the values of `COc1ccc(CCCCCCCCOc2ccc(CSCc3cccc(C(=O)O)c3)nc2CCC(=O)O)cc1` are 0.24 µM, 0.19 µM and 0.008 µM.
In the case of `COc1ccc(CCCCCCCCOc2ccc(CSCc3ccccc3C(=O)O)nc2/C=C/C(=O)O)cc1`, the IC50 in the assay filed under Homo sapiens [1] stood at 0.71 µM. For the same compound, the Ki in assay [3] worked out at 0.112 µM.
For the compound `COc1ccc(CCCCOc2ccc(CSCc3cccc(C(=O)O)c3)nc2/C=C/C(=O)O)cc1`, the IC50 in the assay filed under Homo sapiens [1] and in the assay listed under Homo sapiens [2] was 0.77 µM each time. This compound also had a Ki in assay [3] of 0.0092 µM.
As to `O=C(O)/C=C/c1nc(CSCc2cccc(C(=O)O)c2)ccc1OCCCCc1ccccc1`, the IC50 worked out at 0.5 µM in the assay listed under Homo sapiens [1] and 1.7 µM in the assay listed under Homo sapiens [2]. Besides, the Ki in assay [3] was 0.0048 µM.
In the same order, the values of `COc1ccc(CCCCCCCCOc2ccc(CSCc3ccc(C(=O)O)cc3)nc2/C=C/C(=O)O)cc1` are 0.175 µM, 0.426 µM and 0.0057 µM.
For the compound `COc1ccc(CCCCCCCCOc2ccc(C[S+]([O-])c3cccc(C(=O)O)c3)nc2/C=C/C(=O)O)cc1` (centres undefined), the results for the IC50 in the assay listed under Homo sapiens [1] and in the assay listed under Homo sapiens [2] were 3.9 µM and 3.2 µM, respectively. The compound also yielded a Ki in assay [3] of 0.167 µM.
As for `COc1ccc(CCCCCCCCOc2ccc(C[S+]([O-])Cc3ccc(C(=O)O)cc3)nc2/C=C/C(=O)O)cc1` (centres undefined), in the assay filed under Homo sapiens [1], the IC50 is 7 µM. Also, in assay [3], the Ki was 0.161 µM.
In the case of `CCCc1c(OCCCOc2ccc(C(=O)NC)c(OC)c2CC2CC2)ccc2c1O[C@H](CCC(=O)O)CC2`, the Ki in assay [3] came to 0.0013 µM.

One may read the IC50 as the concentration needed to halve the response being measured. Broadly, the Ki is the equilibrium dissociation constant of an inhibitor or competing ligand from its target. A higher Ki goes with a looser hold on the target.
